From BindingDB's records for doi:10.1016/0960-894X(95)00299-9 (1995)

assay: Tested for 50% of inhibition of Osteoclastic acid phosphatase (OAP) activity, determined using dose-response curve

SMILES	IC50 [µM]
O=C(c1ccccc1)C(C(=O)c1ccccc1)(c1cccc2ccccc12)P(=O)(O)O [2-(naphthalen-1-yl)-1,3-dioxo-1,3-diphenylpropan-2-ylphosphonic acid]	1.4
O=P(O)(O)C(Cc1ccccc1)c1cccc2ccccc12 (configuration not stated) [(1-Naphthalen-1-yl-2-phenyl-ethyl)-phosphonic acid]	21
O=P(O)(O)C(Cc1ccc(-c2ccccc2)cc1)c1cccc2ccccc12 (configuration not stated) [(2-Biphenyl-4-yl-1-naphthalen-1-yl-ethyl)-phosphonic acid]	6.3

Other lines, results leading:

IC50 [µM]	SMILES
11.4	O=P(O)(O)C(CC1CCCCC1)c1cccc2ccccc12 (configuration not stated) [(2-Cyclohexyl-1-naphthalen-1-yl-ethyl)-phosphonic acid]
21	O=P(O)(O)C(Cc1ccc(Cl)cc1)c1cccc2ccccc12 (configuration not stated) [[2-(4-Chloro-phenyl)-1-naphthalen-1-yl-ethyl]-phosphonic acid]
11	Cc1ccc2ccccc2c1C(CC1CCCCC1)P(=O)(O)O (configuration not stated) [[2-Cyclohexyl-1-(2-methyl-naphthalen-1-yl)-ethyl]-phosphonic acid]
30	O=P(O)(O)Cc1cccc2ccccc12 [naphthalen-1-ylmethylphosphonic acid]
